Reference: patent publication US12729377B2, “RNAi agents and compositions for inhibiting expression of angiopoietin-like 3 (ANGPTL3), and methods of use” (Arrowhead Pharmaceuticals, Inc., priority 2017, dated 2026)
In the oligonucleotide strings, read from the 5' end, every base follows the letter of its sugar. An asterisk marks phosphorothioate; unmarked linkages are phosphodiester. Other units and linkages are bracketed, terminal groups are in braces. A string of capitals states the bases alone. {NAG37} = tridentate N-acetyl-galactosamine targeting ligand, structure (NAG37)s; [invAb] = inverted abasic unit; m = 2'-O-methyl; f = 2'-fluoro

Legend:
ANGPTL3 protein [1] = experiment: Example 11: dose response, serum ANGPTL3 protein by ELISA in mice; assay type: in vivo, C57bl/6 mice
Experimental: To assess the dose response of ANGPTL3 RNAi agent AD05488, six- to eight-week-old female C57bl/6 mice were used. Pre-dose serum samples were taken at day −1 after a four hour fast. At day 1, each mouse was given a single subcutaneous administration of 200 μl containing the respective mg/kg dose of an ANGPTL3 RNAi agent in D5W (dextrose in 5% water), or control (D5W) with no RNAi agent, according to the dosing groups recited in Table 53:
The RNAi agent tested (AD05488) included a modified sequence and an N-acetyl-galactosamine-containing targeting ligand conjugated to the 5′ terminal end of the sense strand. (See Tables 3, 4, and 5 for modified sequences and targeting ligand structures). The injections were performed between the skin and muscle (i.e. subcutaneous injections) into the loose skin over the neck and shoulder area. Four (4) mice in each group were tested (n=4). Serum was collected on days 8, 15, 22, and 29. Mice were fasted for four hours prior to each collection. ANGPTL3 protein levels in serum were measured by ELISA assay (R&D Systems), according to the manufacturer's recommendations. Triglycerides, total cholesterol, high-density lipoprotein (HDL), and low-density lipoprotein (LDL) in serum were measured on a Cobas® Integra 400 (Roche Diagnostics), according to the manufacturer's recommendations.
The ANGPTL3 protein levels, triglyceride levels, total cholesterol levels, HDL levels, and LDL levels for each animal were normalized. For normalization, the level of ANGPTL3 protein, triglyceride, HDL, and total cholesterol, respectively, for each animal at a time point, was divided by the pre-treatment level of expression in that animal (in this case at day −1) to determine the ratio of expression “normalized to pre-treatment.” Expression at a specific time point was then normalized to the D5W control group by dividing the “normalized to pre-treatment” ratio for an individual animal by the mean “normalized to pretreatment” ratio of all mice in the D5W control group.

ANGPTL3 protein [2] = experiment: Example 12: serum ANGPTL3 protein by ELISA in LDLR knockout mice; assay type: in vivo, LDLR KO mice
Source text: To evaluate the effect of RNAi agent administration in a disease model, mice having a genetic mutation for the LDL receptor (referred to herein as LDLR KO mice) were commercially obtained (The Jackson Laboratory). The LDLR KO mice are homozygous for the Ldlr^tm1Her mutation, and have elevated serum cholesterol levels, particularly when placed on a high fat diet. For three weeks prior to the onset of the study, thirty-nine (39) LDLR KO mice were placed on a high fat diet (Teklad Custom Diets TD.88137). An additional eight (8) LDLR KO mice were placed on a normal chow diet over the same three-week period. Pre-dose serum samples were taken on day −15 and day −1 after a four hour fast. At day 1, each mouse was given a single subcutaneous administration of 200 μl/30 g animal body weight containing the respective mg/kg dose of an ANGPTL3 RNAi agent in D5W (dextrose in 5% water), control (D5W) with no RNAi agent, or a control RNAi agent that included a nucleotide sequence designed to target the Hepatitis B Virus (HBV) genome. A second injection of the same formulation was administered to the animals on day 29. The dosing regimen for the study is recited in the following Table 60:
Each mouse remained on its respective diet through the duration of study. The RNAi agent tested (AD05488) included a modified sequence and an N-acetyl-galactosamine-containing targeting ligand conjugated to the 5′ terminal end of the sense strand. (See Tables 3, […] modified sequences and targeting ligand structures). The injections were performed between the skin and muscle (i.e. subcutaneous injections) into the loose skin over the neck and shoulder area. Serum was collected on days 8, 15, 22, 29 (pre-second dose), 36, 43, 50, and 57. LDLR KO mice were fasted for four hours prior to each collection. On day 15, four (4) LDLR KO mice from Groups 1, 2, and 3 (i.e., the groups being administered the high fat “Western” diet) were sacrificed after serum collection, and on day 29, an additional four (4) LDLR KO mice from Groups 1, 2, and 3 were sacrificed after serum collection, for the purpose of performing mRNA assessments.
ANGPTL3 protein levels in serum were measured by ELISA assay (R&D Systems), according to the manufacturer's recommendations. Triglycerides, total cholesterol, high-density lipoprotein (HDL), and low-density lipoprotein (LDL) in serum were measured on a Cobas® Integra 400 (Roche Diagnostics), according to the manufacturer's recommendations.
The ANGPTL3 protein levels, triglyceride levels, total cholesterol levels, HDL levels, and LDL levels for each animal were normalized. For normalization, respective levels of ANGPTL3 protein, TG, total cholesterol, HDL, or LDL for each animal at a time point was divided by the average pre-treatment level of expression in that animal (in this case the average of day −15 and day −1) to determine the ratio of expression “normalized to pre-treatment.”
Expression at a specific time point was then normalized to the D5W control group that was administered the same diet (i.e., either the high fat “Western” diet or the normal chow-fed diet) by dividing the “normalized to pre-treatment” ratio for an individual animal by the mean “normalized to pretreatment” ratio of all mice in the D5W control group on the respective same diet, resulting in expression for each time point normalized to that in the control group.

[3] = day 57, two 3 mg/kg doses, LDLR KO mice on high fat Western diet

## AD05488: RNAi agent duplex: antisense AM07235-AS, sense AM07234-SS (antisense mU*fA*mC*fUmGfAmUfCmAfAmAfUmAfUmGfUmUfGmAfG*mC; sense {NAG37}*[invAb]*mGmCmUmCmAmAmCmAfUfAfUmUmUmGmAmUmCmAmGmUmA*[invAb])
ANGPTL3 protein [1]; 0.05 mg/kg single sc day 1, Day 8
  Avg ANGPTL3 Protein Normalized to Pre-Treatment and Control: 0.788
ANGPTL3 protein [1]; 0.05 mg/kg single sc day 1, Day 15
  Avg ANGPTL3 Protein Normalized to Pre-Treatment and Control: 0.929
ANGPTL3 protein [1]; 0.05 mg/kg single sc day 1, Day 22
  Avg ANGPTL3 Protein Normalized to Pre-Treatment and Control: 1.106
ANGPTL3 protein [1]; 0.05 mg/kg single sc day 1, Day 29
  Avg ANGPTL3 Protein Normalized to Pre-Treatment and Control: 0.990
ANGPTL3 protein [1]; 0.1 mg/kg single sc day 1, Day 8
  Avg ANGPTL3 Protein Normalized to Pre-Treatment and Control: 0.511
ANGPTL3 protein [1]; 0.1 mg/kg single sc day 1, Day 15
  Avg ANGPTL3 Protein Normalized to Pre-Treatment and Control: 0.757
ANGPTL3 protein [1]; 0.1 mg/kg single sc day 1, Day 22
  Avg ANGPTL3 Protein Normalized to Pre-Treatment and Control: 0.720
ANGPTL3 protein [1]; 0.1 mg/kg single sc day 1, Day 29
  Avg ANGPTL3 Protein Normalized to Pre-Treatment and Control: 0.734
ANGPTL3 protein [1]; 0.5 mg/kg single sc day 1, Day 8
  Avg ANGPTL3 Protein Normalized to Pre-Treatment and Control: 0.207
ANGPTL3 protein [1]; 0.5 mg/kg single sc day 1, Day 15
  Avg ANGPTL3 Protein Normalized to Pre-Treatment and Control: 0.261
ANGPTL3 protein [1]; 0.5 mg/kg single sc day 1, Day 22
  Avg ANGPTL3 Protein Normalized to Pre-Treatment and Control: 0.310
ANGPTL3 protein [1]; 0.5 mg/kg single sc day 1, Day 29
  Avg ANGPTL3 Protein Normalized to Pre-Treatment and Control: 0.349
ANGPTL3 protein [1]; 1.0 mg/kg single sc day 1, Day 8
  Avg ANGPTL3 Protein Normalized to Pre-Treatment and Control: 0.116
ANGPTL3 protein [1]; 1.0 mg/kg single sc day 1, Day 15
  Avg ANGPTL3 Protein Normalized to Pre-Treatment and Control: 0.141
ANGPTL3 protein [1]; 1.0 mg/kg single sc day 1, Day 22
  Avg ANGPTL3 Protein Normalized to Pre-Treatment and Control: 0.171
ANGPTL3 protein [1]; 1.0 mg/kg single sc day 1, Day 29
  Avg ANGPTL3 Protein Normalized to Pre-Treatment and Control: 0.199
ANGPTL3 protein [1]; 2.5 mg/kg single sc day 1, Day 8
  Avg ANGPTL3 Protein Normalized to Pre-Treatment and Control: 0.064
ANGPTL3 protein [1]; 2.5 mg/kg single sc day 1, Day 15
  Avg ANGPTL3 Protein Normalized to Pre-Treatment and Control: 0.047
ANGPTL3 protein [1]; 2.5 mg/kg single sc day 1, Day 22
  Avg ANGPTL3 Protein Normalized to Pre-Treatment and Control: 0.056
ANGPTL3 protein [1]; 2.5 mg/kg single sc day 1, Day 29
  Avg ANGPTL3 Protein Normalized to Pre-Treatment and Control: 0.063
ANGPTL3 protein [1]; 5.0 mg/kg single sc day 1, Day 8
  Avg ANGPTL3 Protein Normalized to Pre-Treatment and Control: 0.018
ANGPTL3 protein [1]; 5.0 mg/kg single sc day 1, Day 15
  Avg ANGPTL3 Protein Normalized to Pre-Treatment and Control: 0.019
ANGPTL3 protein [1]; 5.0 mg/kg single sc day 1, Day 22
  Avg ANGPTL3 Protein Normalized to Pre-Treatment and Control: 0.029
ANGPTL3 protein [1]; 5.0 mg/kg single sc day 1, Day 29
  Avg ANGPTL3 Protein Normalized to Pre-Treatment and Control: 0.031
ANGPTL3 protein [1]; dose response, single subcutaneous dose, C57bl/6 mice
  reduction in ANGPTL3 protein: reduction
ANGPTL3 protein [2]; 3.0 mg/kg on days 1 and 29 (Groups 2 and 5), LDLR KO mice
  reductions in ANGPTL3 protein levels: significant reductions
ANGPTL3 protein [2]; 3.0 mg/kg sc day 1, High Fat Diet, Day 8
  Avg ANGPTL3 Protein Normalized to Pre-Treatment and Control (Diet Matched): 0.013
ANGPTL3 protein [2]; 3.0 mg/kg sc day 1, High Fat Diet, Day 15
  Avg ANGPTL3 Protein Normalized to Pre-Treatment and Control (Diet Matched): 0.009
ANGPTL3 protein [2]; 3.0 mg/kg sc day 1, High Fat Diet, Day 22
  Avg ANGPTL3 Protein Normalized to Pre-Treatment and Control (Diet Matched): 0.011
ANGPTL3 protein [2]; 3.0 mg/kg sc day 1, High Fat Diet, Day 29 (pre-second dose)
  Avg ANGPTL3 Protein Normalized to Pre-Treatment and Control (Diet Matched): 0.011
ANGPTL3 protein [2]; 3.0 mg/kg sc day 1, Normal Diet, Day 8
  Avg ANGPTL3 Protein Normalized to Pre-Treatment and Control (Diet Matched): 0.042
ANGPTL3 protein [2]; 3.0 mg/kg sc day 1, Normal Diet, Day 15
  Avg ANGPTL3 Protein Normalized to Pre-Treatment and Control (Diet Matched): 0.037
ANGPTL3 protein [2]; 3.0 mg/kg sc day 1, Normal Diet, Day 22
  Avg ANGPTL3 Protein Normalized to Pre-Treatment and Control (Diet Matched): 0.043
ANGPTL3 protein [2]; 3.0 mg/kg sc day 1, Normal Diet, Day 29 (pre-second dose)
  Avg ANGPTL3 Protein Normalized to Pre-Treatment and Control (Diet Matched): 0.060
ANGPTL3 protein [2]; 3.0 mg/kg sc days 1 and 29, High Fat Diet, Day 36
  Avg ANGPTL3 Protein Normalized to Pre-Treatment and Control (Diet Matched): 0.005
ANGPTL3 protein [2]; 3.0 mg/kg sc days 1 and 29, High Fat Diet, Day 43
  Avg ANGPTL3 Protein Normalized to Pre-Treatment and Control (Diet Matched): 0.005
ANGPTL3 protein [2]; 3.0 mg/kg sc days 1 and 29, High Fat Diet, Day 50
  Avg ANGPTL3 Protein Normalized to Pre-Treatment and Control (Diet Matched): 0.005
ANGPTL3 protein [2]; 3.0 mg/kg sc days 1 and 29, High Fat Diet, Day 57
  Avg ANGPTL3 Protein Normalized to Pre-Treatment and Control (Diet Matched): 0.007
ANGPTL3 protein [2]; 3.0 mg/kg sc days 1 and 29, Normal Diet, Day 36
  Avg ANGPTL3 Protein Normalized to Pre-Treatment and Control (Diet Matched): 0.024
ANGPTL3 protein [2]; 3.0 mg/kg sc days 1 and 29, Normal Diet, Day 43
  Avg ANGPTL3 Protein Normalized to Pre-Treatment and Control (Diet Matched): 0.024
ANGPTL3 protein [2]; 3.0 mg/kg sc days 1 and 29, Normal Diet, Day 50
  Avg ANGPTL3 Protein Normalized to Pre-Treatment and Control (Diet Matched): 0.032
ANGPTL3 protein [2]; 3.0 mg/kg sc days 1 and 29, Normal Diet, Day 57
  Avg ANGPTL3 Protein Normalized to Pre-Treatment and Control (Diet Matched): 0.037
ANGPTL3 protein [2]; [3]
  ANGPTL3 protein normalized to pre-treatment and control (diet matched): 0.007
  reduction in ANGPTL3 protein levels compared to control: approximately 99%
